Assay results from publication PMC9968098, “Towards Arginase Inhibition: Hybrid SAR Protocol for Property Mapping of Chlorinated N-arylcinnamamides” (International Journal of Molecular Sciences, 2023).
Like-named read-outs stand apart in the source and are kept apart here.

What was measured:
[1] = set-up: method as in PMID 35328580; conditions: experimentally determined lipophilicity, RP-HPLC; cited from earlier work
[2] = test system: P. falciparum 3D7/MRA-102; assay: In vitro antiplasmodial activity (parasite growth, 48 h); format: cell-based; conditions: Plasmodium falciparum, read-out: Pf IC50 ± SD
Method: The following reagent was obtained through BEI Resources, NIAID, NIH: Plasmodium falciparum, strain 3D7, MRA-102, contributed by Daniel J. Carucci. Based on a modified procedure by Trager and Jensen, asexual erythrocytic stages of Pf were continuously maintained through in vitro culture. The chloroquine-sensitive strain is cultured thanks to human red blood cells (A+) and a culture medium mainly composed of RPMI 1640 (Gibco, Fisher Scientific, Loughborough, UK) containing NaHCO3 (32 mM), HEPES (25 mM), and L-glutamine. The medium was supplemented with 1.76 g/L of glucose (Sigma-Aldrich, […], Belgium), […] of hypoxanthine (Sigma-Aldrich), 100 mg/L of gentamycin (Gibco, Fisher Scientific) and 10% human pooled serum (A+), as previously described. Solutions of pure products were prepared in DMSO at 10 mg/mL. As DMSO is recognized as toxic for parasites, the highest concentration of solvent to which they were exposed was 1%. Thus, primary solutions were diluted in a culture medium to reach 100 μg/mL in the first row of a 96-well plate. Therefore, each test sample was applied in a series of eight 2-fold dilutions and tested in triplicate. The assay was performed with 2% parasitaemia and 1% haematocrit. After 48 h of incubation, plates were frozen at -20 °C for 12 h and parasite growth was quantified according to the methods described by Makler et al.. Chloroquine (Sigma-Aldrich) was used as positive standards in all experiments, with initial concentrations at 100 ng/mL. Infected and uninfected red blood cells (RBC) were used as positive (100% growth) and negative controls (0% growth). Consequently, comparison between infected erythrocytes and samples allowed us to estimate the growth inhibition. IC50 values were calculated from linear regression.

[3] = test system: human monocytic leukemia cell line THP-1; set-up: method as in PMID 35328580; conditions: cell viability, THP-1 cells, n = 3; cited from earlier work
[4] = chloroquine-sensitive strain 3D7/MRA-102, 48 h incubation, n = 3

SMILES	logk [1]	IC50 [2, 4]	IC50 [3]	IC50 ([2]; 3D7, 48 h)
O=C(/C=C/c1ccc(Cl)c(Cl)c1)Nc1ccc(Cl)cc1Cl [2m]	1.0932	3.4 ± 0.9 µM	> 10 µM	
O=C(/C=C/c1ccc(Cl)cc1)Nc1cc(Cl)cc(Cl)c1 [1o]	1.1899	4.4 ± 1.8 µM	> 10 µM	
O=C(/C=C/c1ccc(Cl)cc1)Nc1ccccc1F [1b]	0.6459	> 30 µM	> 10 µM	
O=C(/C=C/c1ccc(Cl)c(Cl)c1)Nc1cc(F)cc(F)c1 [2l, (2E)-3-(3,4-dichlorophenyl)-N-(3,5-difluoro-phenyl)prop-2-enamide]	0.9298	1.8 ± 0.08 µM	> 10 µM	
O=C(/C=C/c1ccc(Cl)c(Cl)c1)Nc1cc(Cl)cc(Cl)c1 [2o]	1.3043	3.8 ± 1.1 µM	> 10 µM	
O=C(/C=C/c1ccc(Cl)cc1)Nc1cccc(F)c1 [1c]	0.7859	6.9 ± 2.1 µM	> 10 µM	
O=C(/C=C/c1ccc(Cl)cc1)Nc1ccc(Cl)cc1Cl [1m]	0.9665	4.6 ± 1.8 µM	> 10 µM	
O=C(/C=C/c1ccc(Cl)c(Cl)c1)Nc1ccccc1C(F)(F)F [2h]	0.6836	> 30 µM	> 10 µM	
O=C(/C=C/c1ccc(Cl)c(Cl)c1)Nc1ccc(F)cc1 [2d]	0.9009	14.1 ± 3.1 µM	> 10 µM	
O=C(/C=C/c1ccc(Cl)cc1)Nc1ccc(F)cc1F [1k]	0.5746	11 ± 2.1 µM	> 10 µM	
O=C(/C=C/c1ccc(Cl)cc1)Nc1ccccc1C(F)(F)F [1h]	0.5506	> 30 µM	> 10 µM	
O=C(/C=C/c1ccc(Cl)cc1)Nc1ccc(C(F)(F)F)cc1 [1j]	0.9078	> 30 µM	> 10 µM	
O=C(/C=C/c1ccc(Cl)cc1)Nc1ccc(Cl)cc1 [1g]	0.5598	29.2 ± 2.4 µM	> 10 µM	
O=C(/C=C/c1ccc(Cl)c(Cl)c1)Nc1ccc(C(F)(F)F)cc1 [2j]	1.0364	16 ± 2.5 µM	> 10 µM	
O=C(/C=C/c1ccc(Cl)c(Cl)c1)Nc1ccccc1 [2a]	0.6199	21.4 ± 2.6 µM	> 10 µM	
O=C(/C=C/c1ccc(Cl)c(Cl)c1)Nc1cccc(Cl)c1 [2f]	0.7404	10.5 ± 2 µM	> 10 µM	
O=C(/C=C/c1ccc(Cl)c(Cl)c1)Nc1ccccc1F [2b]	0.7764	> 30 µM	> 10 µM	
O=C(/C=C/c1ccc(Cl)c(Cl)c1)Nc1cc(Cl)ccc1Cl [2n]	1.0840	> 30 µM	> 10 µM	

SMILES	logk [1]	IC50 [2, 4]	IC50 [3]	IC50 ([2]; 3D7, 48 h)
O=C(/C=C/c1ccc(Cl)c(Cl)c1)Nc1ccccc1Cl [2e]	0.6488	> 30 µM	> 10 µM	
O=C(/C=C/c1ccc(Cl)c(Cl)c1)Nc1cccc(C(F)(F)F)c1 [2i]	0.9873	14.2 ± 2.3 µM	> 10 µM	
O=C(/C=C/c1ccc(Cl)c(Cl)c1)Nc1ccc(Cl)cc1 [2g]	0.6786	7.9 ± 1.7 µM	> 10 µM	
O=C(/C=C/c1ccc(Cl)cc1)Nc1ccc(OC(F)(F)F)cc1Br [1q]	1.0278	24.8 ± 2.5 µM	> 10 µM	
O=C(/C=C/c1ccc(Cl)cc1)Nc1ccccc1 [1a]	0.4490	> 30 µM	> 10 µM	
CCN(CC)CCCC(C)Nc1ccnc2cc(Cl)ccc12 (stereo not shown) [CQ, chloroquine, reference compound]				0.5 ± 0.2 µM
O=C(/C=C/c1ccc(Cl)c(Cl)c1)Nc1cccc(F)c1 [2c]	0.9071	3.4 ± 1 µM	> 10 µM	
O=C(/C=C/c1ccc(Cl)c(Cl)c1)Nc1cc(C(F)(F)F)cc(C(F)(F)F)c1 [2p, (2E)-N-[3,5-bis(trifluoromethyl)phenyl]-3-(3,4-dichloro-phenyl)prop-2-enamide]	1.4731	1.6 ± 0.07 µM	> 10 µM	
O=C(/C=C/c1ccc(Cl)c(Cl)c1)Nc1ccc(OC(F)(F)F)cc1Br [2q]	1.2065	23 ± 2.7 µM	> 10 µM	
O=C(/C=C/c1ccc(Cl)cc1)Nc1ccc(F)cc1 [1d]	0.7808	> 30 µM	> 10 µM	
O=C(/C=C/c1ccc(Cl)cc1)Nc1cc(F)cc(F)c1 [1l]	0.8054	5.2 ± 0.9 µM	> 10 µM	
O=C(/C=C/c1ccc(Cl)cc1)Nc1ccccc1Cl [1e]	0.5241	> 30 µM	> 10 µM	
O=C(/C=C/c1ccc(Cl)cc1)Nc1cc(Cl)ccc1Cl [1n]	0.9507	> 30 µM	> 10 µM	
O=C(/C=C/c1ccc(Cl)cc1)Nc1cc(C(F)(F)F)cc(C(F)(F)F)c1 [1p, (2E)-N-[3,5-bis(trifluoromethyl)phenyl]-3-(4-chlorophenyl)prop-2-enamide]	1.3064	2.5 ± 0.9 µM	> 10 µM	
O=C(/C=C/c1ccc(Cl)cc1)Nc1cccc(Cl)c1 [1f]	0.6192	12.7 ± 2.1 µM	> 10 µM	
O=C(/C=C/c1ccc(Cl)cc1)Nc1cccc(C(F)(F)F)c1 [1i]	0.8612	14.8 ± 3.1 µM	> 10 µM	
O=C(/C=C/c1ccc(Cl)c(Cl)c1)Nc1ccc(F)cc1F [2k, (2E)-3-(3,4-dichlorophenyl)-N-(2,4-difluoro-phenyl)prop-2-enamide]	0.6989	1.9 ± 0.06 µM	> 10 µM	
